From patent US5284853A, “Angiotensin II receptor blocking 2,3,6 substituted quinazolinones” (American Cyanamid Company, priority 1993, dated 1994)

Biological target: T1, Angiotensin II Receptor (Bos taurus, UniProt P25104)
T1 construct: The brownish tissue forming the adrenal cortex is scraped off and finely minced with scissors before homogenization; tissue local slaughter house (Maxwell-Cohen); host or cells: beef adrenal cortex, microsomal membranes (100,000×g pellet)
T1 sequence (P25104 1-359): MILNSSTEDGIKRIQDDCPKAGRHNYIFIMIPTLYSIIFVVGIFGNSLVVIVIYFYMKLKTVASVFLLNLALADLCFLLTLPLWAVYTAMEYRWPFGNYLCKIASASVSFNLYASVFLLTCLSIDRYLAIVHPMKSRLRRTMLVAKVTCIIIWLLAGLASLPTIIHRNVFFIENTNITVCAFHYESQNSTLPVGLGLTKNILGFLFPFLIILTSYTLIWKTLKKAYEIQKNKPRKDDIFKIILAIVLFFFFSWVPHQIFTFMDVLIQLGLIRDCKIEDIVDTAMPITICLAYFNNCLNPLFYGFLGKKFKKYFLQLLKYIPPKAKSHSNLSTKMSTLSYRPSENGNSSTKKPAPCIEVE
Experiment: Receptor binding assay: competition of [^125 I](Sar^1,Ile^8)AngII binding to beef adrenal cortex microsomal membranes
Details: 60 min, room temperature, pH 7.4

IC50: 0.17 µM
SMILES: CCCCc1nc2ccc(C3CC(c4ccc(C)o4)=NO3)cc2c(=O)n1Cc1ccc(-c2ccccc2-c2nnn[nH]2)cc1 (stereo not shown) [Example 19]
